Assay results as given in patent US20210401867A1, “PHOTOSENSITIZERS AND METHOD OF TREATING CANCER USING THE SAME” (Cheng-Wen Wu, priority 2018, published 2021).

Experiments:
γH2AX [1] = test: p-γH2AX immunofluorescent staining of FaDu cells; format: cell-based, human; details: 1 μM BrdU with 1 Gy of 14 keV NR
Description: Referring to FIGS. 23A and 23B, p-γH2AX immunofluorescent staining for evaluating DNA damages induced by BrdU, RS2000, BrdU with RS2000, NR, and NR with BrdU, are provided in accordance with exemplary embodiments of the present disclosure. γH2AX is the histone H2AX protein with phosphorylated amino acid on serine 139. γH2AX is a specific marker for DNA DSBs. FaDu cells are seeded on a chamber slides, and are fixed with −20° C., 100% ethanol under room temperature for 15 minutes. The fixed chamber slides are washed with PBS, and permeablized with 0.1% Triton X-100 for 10 minutes. Then, the chamber slides are blocked with 5% milk in PBS for 30 minutes at room temperature, and incubated with primary antibody (anti-γH2AX) overnight at 4° C. FaDu cells in the chamber slides are then washed with PBS, and incubated with secondary antibody which is conjugated by a fluorescent dye for 1 hour at room temperature. The nuclei were countestained with 5 μg/ml of DAPI (4′,6-diamidino-2-phenylindole). The stained FaDu cells are then being mounted and subjected to microscopic examination with a confocal laser scanning microscope (ZEISS LSM780). The number of p-γH2AX are quantified using Metamorph software. […] FIG. 23B is a quantitative result of FIG. 23A. […]

FaDu-RFP+ cells = test: in vivo IdU incorporation rate in FaDu-RFP+ solid tumors (flow cytometry); design: species or system mouse
Excerpt: An injection concentration of IdU is selected based on a flow cytometry analysis on the incorporation rate of IdU in tumor cells. Referring to FIG. 13A, a schematic diagram of an in vivo animal experiment for determining an injection concentration of IdU is provided in accordance with an exemplary embodiment of the present disclosure. FaDu cells are marked with RFP (red fluorescent protein) and […]. The malignant solid tumors formed by FaDu-RFP+ cells on the tumorigenic mouse are injected with different concentrations of IdU: 100 μg, 50 μg, 20 μg, 10 μg, 5 μg, or 2 μg per 100 μl PBS. 4 hours later, the tumorigenic mouse are sacrificed and the solid tumors are isolated to single cells. The single cells from the solid tumors are then subjected to antibody staining and flow cytometry analyses. Referring to FIG. 13B, a flow cytometry result of the experiments described by FIG. 13A, is provided in accordance with an exemplary embodiment of the present disclosure. The horizontal axis represents the RFP signals, and the vertical axis represents the GFP signals. […] Only 6.232% of FaDu cells are detected with GFP in the left panel of FIG. 13B. The right panel of FIG. 13B are FaDu cells treated with 50 μg of IdU, an area 132 is FaDu cells detected with GFP signals. 19.088% of FaDu cells are detected with GFP signals in the right panel of FIG. 13B. […]

γH2AX [2] = test: Western blotting for pATM, γH2AX and c-CASP3 in FaDu cells; format: cell-based, human; details: 10 μM IdU and 2 Gy of NR, 30 minutes after irradiation, among all treatments
Description: To investigate the mechanism associated with the combination of IdU and NR in the Auger molecular therapy, molecular markers involving DNA damage and apoptosis are analyzed. In vitro FaDu cells are treated with 10 μM of IdU, and irradiated by 2Gy of NR or RS2000. 30 minutes after above treatments, FaDu cells are subjected to Western blot to determine the expression of several proteins relevant to DNA damage and apoptosis: phosphor-ATM (pATM) is a protein kinase activated by DNA double-strand-breaks (DSBs), and it phosphorylates several key factors to initiate DNA damage checkpoint and repair; γH2AX is one of the targets of pATM, and it forms the foundation of chromatin-based signaling cascades at DSBs sites, and it is widely considered as a highly specific and sensitive marker for quantitative evaluation of DSB; and CASP3 is a marker for increased apoptosis, wherein c-CASP3 is a cleaved CASP3 formed when apoptotic signals are present in the cell. The subcutaneous tumor also subjected to Western blot 3 days after the above treatments.
FIGS. 17A and 17B are results of Western blotting for protein expression levels of pATM, γH2AX, and c-CASP3, in accordance with exemplary embodiments of the present disclosure. FIG. 17A is the result at 30 minutes after irradiation, and FIG. 17B is the result at 3 days after irradiation, wherein β-ACTIN are served as an internal control in both figures. […]

Compound | γH2AX expression (immunofluorescent staining) (γH2AX [1]) | IdU incorporation rate among injected concentrations (FaDu-RFP+ cells; 50 μg IdU/100 μl PBS versus 100, 20, 10, 5, 2 μg) | FaDu cells detected with GFP signals (IdU incorporation) (FaDu-RFP+ cells; 50 μg of IdU injected into tumor, 4 hours) | γH2AX expression (Western blot) (γH2AX [2])
O=c1[nH]c(=O)n([C@H]2C[C@H](O)[C@@H](CO)O2)cc1Br [BrdU, bromodeoxyuridine] | significant amount of γH2AX expression | – | – | –
O=c1[nH]c(=O)n([C@H]2C[C@H](O)[C@@H](CO)O2)cc1I [IdU, iododeoxyuridine] | – | best IdU incorporation rate | 19.088% | most γH2AX expression
